Data taken from PubChem BioAssay AID248 (DTP/NCI, 2004).
Where “and” joins values, the source holds several entries; their conditions need not be identical. Identical values can stand only once. Inconclusive results and toxic doses are left out. No stated cut-off is given here; in the data, active means T/C of 150% or more; inactive means T/C below 125%.

Test system: L1210 leukemia ip in BDF1 mice, survival T/C
Assay: NCI In Vivo Anticancer Drug Screen. Data for tumor model L1210 Leukemia (intraperitoneal) in B6D2F1 (BDF1) mice
Conditions: endpoint: mean survival time, higher = longer survival
How it was run: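 Transplantable tumor model; survival measured in treated vs vehicle control mice. Value = treated/control.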

[1] = dose: 100.0 mg/kg/injection, schedule: Q04DX002 (ip), vehicle: Klucel (hydroxypropylcellulose) (HPC)
[2] = dose: 200.0 mg/kg/injection, schedule: Q04DX002 (ip), vehicle: Klucel (hydroxypropylcellulose) (HPC)
[3] = dose: 400.0 mg/kg/injection, schedule: Q04DX002 (ip), vehicle: Klucel (hydroxypropylcellulose) (HPC)
[4] = dose: 100.0 mg/kg/injection, schedule: Q01DX009 (ip), vehicle: saline
[5] = dose: 200.0 mg/kg/injection, schedule: Q01DX009 (ip), vehicle: saline
[6] = dose: 100.0 mg/kg/injection, schedule: Q01DX009 (ip), vehicle: Klucel (hydroxypropylcellulose) (HPC)
[7] = dose: 200.0 mg/kg/injection, schedule: Q01DX009 (ip), vehicle: Klucel (hydroxypropylcellulose) (HPC)
[8] = dose: 400.0 mg/kg/injection, schedule: Q01DX009 (ip), vehicle: Klucel (hydroxypropylcellulose) (HPC)
[9] = dose: 100.0 mg/kg/injection, schedule: Q01DX001 (ip), vehicle: saline
[10] = dose: 200.0 mg/kg/injection, schedule: Q01DX001 (ip), vehicle: saline
[11] = dose: 400.0 mg/kg/injection, schedule: Q01DX001 (ip), vehicle: saline

Measured: T/C

COC(=O)CCCC(=O)c1[nH]c2ccccc2c1CC(=O)NCc1ccccc1
inactive: dose: 75.0 mg/kg/injection, schedule: Q01DX001 (ip), vehicle: alcohol 97 % of control | dose: 150.0 mg/kg/injection, schedule: Q01DX001 (ip), vehicle: alcohol 93 % of control | dose: 300.0 mg/kg/injection, schedule: Q01DX001 (ip), vehicle: alcohol 92 % of control

[Cl][Pd][Cl].[NH-]C(c1ccccc1)C([NH-])c1ccccc1 (configuration not stated)
inactive: [1] 93 % of control and 97 % of control | [2] 90 % of control and 118 % of control | [3] 88 % of control and 97 % of control

N#CS
inactive: dose: 50.0 mg/kg/injection, schedule: Q01DX009 (ip), vehicle: saline 102 % of control | [4] 95 % of control | [5] 98 % of control

O=C(Nc1cccc(S(=O)(=O)F)c1)/C(=C/c1ccc([N+](=O)[O-])cc1)c1ccccc1
inactive: dose: 100.0 mg/kg/injection, schedule: Q01DX001 (ip), vehicle: Klucel (hydroxypropylcellulose) (HPC) 89 % of control | dose: 200.0 mg/kg/injection, schedule: Q01DX001 (ip), vehicle: Klucel (hydroxypropylcellulose) (HPC) 99 % of control | dose: 400.0 mg/kg/injection, schedule: Q01DX001 (ip), vehicle: Klucel (hydroxypropylcellulose) (HPC) 99 % of control

CC1CC/C(=N\N(C)C)c2ccccc21 (configuration not stated)
inactive: dose: 100.0 mg/kg/injection, schedule: Q01DX009 (ip), vehicle: saline with Tween-80 120 % of control | dose: 100.0 mg/kg/injection, schedule: Q04DX003 (ip), vehicle: saline with Tween-80 117 % of control | dose: 200.0 mg/kg/injection, schedule: Q04DX003 (ip), vehicle: saline with Tween-80 103 % of control | dose: 400.0 mg/kg/injection, schedule: Q04DX003 (ip), vehicle: saline with Tween-80 105 % of control

O=C(O)c1ccccc1SCCO
inactive: [4] 109 % of control | [5] 94 % of control | dose: 400.0 mg/kg/injection, schedule: Q01DX009 (ip), vehicle: saline 95 % of control

ClCCN(CCCl)c1ccc(C[n+]2ccc3ccccc3c2)cc1
inactive: dose: 8.0 mg/kg/injection, schedule: Q01DX015 (ip), vehicle: carboxymethylcellulose (CMC) 109 % of control | dose: 16.0 mg/kg/injection, schedule: Q01DX015 (ip), vehicle: carboxymethylcellulose (CMC) 113 % of control | dose: 32.0 mg/kg/injection, schedule: Q01DX015 (ip), vehicle: carboxymethylcellulose (CMC) 106 % of control

COc1ccc2c(n1)Sc1c(N)nc(N)nc1N2
inactive: [6] 103 % of control | [7] 103 % of control | [8] 88 % of control

O=C(NCCCl)N(c1ccccc1)c1cccc(C(F)(F)F)c1
inactive: dose: 100.0 mg/kg/injection, schedule: Q01DX005 (ip), vehicle: Klucel (hydroxypropylcellulose) (HPC) 102 % of control | [6] 98 % of control | [1] 114 % of control | dose: 200.0 mg/kg/injection, schedule: Q01DX005 (ip), vehicle: Klucel (hydroxypropylcellulose) (HPC) 91 % of control | [7] 98 % of control | [2] 96 % of control | dose: 400.0 mg/kg/injection, schedule: Q01DX005 (ip), vehicle: Klucel (hydroxypropylcellulose) (HPC) 94 % of control | [8] 98 % of control | [3] 104 % of control

Cc1ccc(Nc2nc(N)nc(N)c2N)cc1C
inactive: dose: 25.0 mg/kg/injection, schedule: Q01DX Z (ip), vehicle: saline 93 % of control

CC(=O)NCC1CCCO1 (configuration not stated)
inactive: dose: 75.0 mg/kg/injection, schedule: Q01DX009 (ip), vehicle: saline 112 % of control | dose: 100.0 mg/kg/injection, schedule: Q04DX003 (ip), vehicle: saline 105 % of control | dose: 150.0 mg/kg/injection, schedule: Q01DX009 (ip), vehicle: saline 103 % of control | dose: 200.0 mg/kg/injection, schedule: Q04DX003 (ip), vehicle: saline 108 % of control | dose: 300.0 mg/kg/injection, schedule: Q01DX009 (ip), vehicle: saline 103 % of control | dose: 400.0 mg/kg/injection, schedule: Q04DX003 (ip), vehicle: saline 106 % of control

CC1(C)N=C(N)N=C(N)N1c1ccc(OCC(=O)Nc2ccccc2)c(Cl)c1
inactive: [6] 102 % of control | dose: 100.0 mg/kg/injection, schedule: Q04DX003 (ip), vehicle: Klucel (hydroxypropylcellulose) (HPC) 97 % of control | [7] 94 % of control | dose: 200.0 mg/kg/injection, schedule: Q04DX003 (ip), vehicle: Klucel (hydroxypropylcellulose) (HPC) 90 % of control | [8] 93 % of control | dose: 400.0 mg/kg/injection, schedule: Q04DX003 (ip), vehicle: Klucel (hydroxypropylcellulose) (HPC) 92 % of control

O=C(/C=C/c1ccc2c(c1)OCO2)c1ccc([N+](=O)[O-])cc1
inactive: dose: 100.0 mg/kg/injection, schedule: Q04DX003 (ip), vehicle: alcohol 93 % of control | dose: 200.0 mg/kg/injection, schedule: Q04DX003 (ip), vehicle: alcohol 90 % of control | dose: 400.0 mg/kg/injection, schedule: Q04DX003 (ip), vehicle: alcohol 93 % of control

O=C(Oc1ccc(N=Cc2ccccc2)cc1)Oc1ccc(N=Cc2ccccc2)cc1
inactive: [9] 86 % of control | [10] 86 % of control | [11] 95 % of control

ClCCN1CCC2(CC1)SSC1(CCN(CCCl)CC1)S2
inactive: dose: 10.0 mg/kg/injection, schedule: Q01DX009 (ip), vehicle: saline 107 % of control | dose: 20.0 mg/kg/injection, schedule: Q01DX001 (ip), vehicle: Klucel (hydroxypropylcellulose) (HPC) 108 % of control | dose: 20.0 mg/kg/injection, schedule: Q01DX009 (ip), vehicle: saline 103 % of control | dose: 40.0 mg/kg/injection, schedule: Q01DX001 (ip), vehicle: Klucel (hydroxypropylcellulose) (HPC) 121 % of control

Cc1cccc(NC(=S)NCc2ccco2)c1
inactive: [6] 96 % of control | [7] 93 % of control | [8] 91 % of control

CC(=O)Oc1ccc2c(c1)C(=O)C(Br)C1C2CCC2(C)C(OC(C)=O)CCC12 (configuration not stated)
inactive: dose: 30.0 mg/kg/injection, schedule: Q01DX015 (sc), vehicle: steriod suspending solution 96 % of control | dose: 60.0 mg/kg/injection, schedule: Q01DX015 (sc), vehicle: steriod suspending solution 97 % of control | dose: 100.0 mg/kg/injection, schedule: Q01DX001 (sc), vehicle: steriod suspending solution 116 % of control | dose: 120.0 mg/kg/injection, schedule: Q01DX015 (sc), vehicle: steriod suspending solution 97 % of control | dose: 200.0 mg/kg/injection, schedule: Q01DX001 (sc), vehicle: steriod suspending solution 104 % of control | dose: 240.0 mg/kg/injection, schedule: Q01DX015 (sc), vehicle: steriod suspending solution 100 % of control | dose: 400.0 mg/kg/injection, schedule: Q01DX001 (sc), vehicle: steriod suspending solution 96 % of control

Clc1sc2ccccc2c1Cl
inactive: dose: 50.0 mg/kg/injection, schedule: Q01DX009 (ip), vehicle: Klucel (hydroxypropylcellulose) (HPC) 103 % of control | [6] 95 % of control

c1ccc(CCCCCCCCCCc2ccccc2)cc1
inactive: dose: 100.0 mg/kg/injection, schedule: Q01DX001 (ip), vehicle: saline with Tween-80 91 % of control | dose: 200.0 mg/kg/injection, schedule: Q01DX001 (ip), vehicle: saline with Tween-80 95 % of control | dose: 400.0 mg/kg/injection, schedule: Q01DX001 (ip), vehicle: saline with Tween-80 98 % of control

O=C(O)C(Cc1ccccc1)Cc1ccccc1
inactive: [9] 97 % of control | [10] 103 % of control | [11] 109 % of control

COC(=O)c1cccc(C(=O)CC(=O)c2ccccc2)c1
inactive: [6] 90 % of control | [7] 95 % of control | [8] 88 % of control

COC(COS(=O)(=O)c1ccc(Br)cc1)(c1ccccc1)c1ccccc1
inactive: dose: 50.0 mg/kg/injection, schedule: Q01DX009 (ip), vehicle: saline with Tween-80 87 % of control

COc1ccc([N+](=O)[O-])cc1NC(=O)Nc1ccccc1C(F)(F)F
inactive: [6] 88 % of control and 92 % of control | [7] 92 % of control | [8] 92 % of control
